Source: US8426345B2, “Method of drug design” (Alchemia Limited, priority 2005, dated 2013)

Target: T1, Human SST5 somatostatin receptor (Homo sapiens, UniProt P35346)
T1 construct: expressed in transfected cells; host or cells: HEK-293 EBNA cells (membranes)
Assay: Filter plate radio-ligand binding assay for SST5 receptor ([125I]SST-14 displacement)
Details: for % SST5 radio-ligand binding displaced at conc 10: conc 10 μM; for % SST5 radio-ligand binding displaced at conc 0.25: conc 0.25 μM; for % SST5 radio-ligand binding displaced at conc 1.0: conc 1.0 μM; for % SST5 radio-ligand binding displaced at conc 0.5: conc 0.5 μM; for % SST5 radio-ligand binding displaced at conc 0.001: conc 0.001 μM; for % SST5 radio-ligand binding displaced at conc 0.10: conc 0.10 μM

[1] = compound conc 50 μM, 2P library
[2] = compound conc 250 μM, 2P library
[3] = compound conc 500 μM, 2P library

T1 sequence (P35346 whole entry): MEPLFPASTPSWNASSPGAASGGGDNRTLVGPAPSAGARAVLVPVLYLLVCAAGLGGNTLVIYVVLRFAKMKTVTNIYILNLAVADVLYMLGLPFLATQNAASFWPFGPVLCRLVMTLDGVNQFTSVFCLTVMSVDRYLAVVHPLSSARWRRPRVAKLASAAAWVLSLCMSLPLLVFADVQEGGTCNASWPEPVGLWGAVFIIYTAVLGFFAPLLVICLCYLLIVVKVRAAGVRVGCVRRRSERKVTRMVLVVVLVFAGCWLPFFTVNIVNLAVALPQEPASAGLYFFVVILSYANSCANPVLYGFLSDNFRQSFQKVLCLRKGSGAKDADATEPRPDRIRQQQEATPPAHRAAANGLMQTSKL

## COCC1OC(OCc2ccc3ccccc3c2)C(NC(=O)CCCN)C(OCc2ccc(Cl)cc2)C1O (mixture of isomers) [Compound 133]
3P library
  % SST5 radio-ligand binding displaced at conc 10: ++ (% SST5 radio-ligand binding displaced at conc (μM) >60%)

## COC[C@H]1O[C@H](OCc2ccc3ccccc3c2)[C@H](NC(=O)CCN)[C@@H](OCc2cccc3ccccc23)[C@@H]1O [Compound 114]
3P library
  % SST5 radio-ligand binding displaced at conc 0.25: ++ (% SST5 radio-ligand binding displaced at conc (μM) >60%)
  % SST5 radio-ligand binding displaced at conc 1.0: ++ (% SST5 radio-ligand binding displaced at conc (μM) >60%)

## COC[C@H]1O[C@@H](SC)[C@H](NC(=O)CCCN)[C@@H](OCc2ccc(Cl)cc2)[C@@H]1O [Compound 24]
[1]
  % SST5 radio-ligand binding displaced at conc 50: − (% SST5 radio-ligand binding displaced at cone (μM) −<40%)
[2]
  % SST5 radio-ligand binding displaced at conc 250: − (% SST5 radio-ligand binding displaced at cone (μM) −<40%)
[3]
  % SST5 radio-ligand binding displaced at conc 500: − (% SST5 radio-ligand binding displaced at cone (μM) −<40%)

## COC1C(O)C(COCc2ccc3ccccc3c2)OC(SC)C1NC(=O)CN (stereo not shown) [Compound 30]
[1]
  % SST5 radio-ligand binding displaced at conc 50: − (% SST5 radio-ligand binding displaced at cone (μM) −<40%)
[2]
  % SST5 radio-ligand binding displaced at conc 250: − (% SST5 radio-ligand binding displaced at cone (μM) −<40%)
[3]
  % SST5 radio-ligand binding displaced at conc 500: + (% SST5 radio-ligand binding displaced at cone (μM) 60>+>40%)

## COC[C@H]1O[C@@H](OCc2ccc(Cl)cc2)[C@H](NC(=O)CN)[C@@H](OC)[C@@H]1O [Compound 157]
Conc 50 μM, 3P library
  % SST5 radio-ligand binding displaced at conc 50: − (% SST5 radio-ligand binding displaced at cone (μM) −<40%)
Conc 250 μM, 3P library
  % SST5 radio-ligand binding displaced at conc 250: − (% SST5 radio-ligand binding displaced at cone (μM) −<40%)
Conc 500 μM, 3P library
  % SST5 radio-ligand binding displaced at conc 500: − (% SST5 radio-ligand binding displaced at cone (μM) −<40%)

## COC[C@H]1O[C@H](OCc2ccc3ccccc3c2)[C@H](NC(=O)C2CNC2)[C@@H](OCc2ccc3ccccc3c2)[C@@H]1O [Compound 101]
3P library
  % SST5 radio-ligand binding displaced at conc 0.25: − (% SST5 radio-ligand binding displaced at cone (μM) −<40%)
  % SST5 radio-ligand binding displaced at conc 1.0: + (% SST5 radio-ligand binding displaced at cone (μM) 60>+>40%)

## COC[C@H]1O[C@H](OCc2ccc(Cl)cc2)[C@H](NC(=O)CN)[C@@H](OC)[C@@H]1O [Compound 156]
Conc 50 μM, 3P library
  % SST5 radio-ligand binding displaced at conc 50: − (% SST5 radio-ligand binding displaced at cone (μM) −<40%)
Conc 250 μM, 3P library
  % SST5 radio-ligand binding displaced at conc 250: − (% SST5 radio-ligand binding displaced at cone (μM) −<40%)
Conc 500 μM, 3P library
  % SST5 radio-ligand binding displaced at conc 500: − (% SST5 radio-ligand binding displaced at cone (μM) −<40%)

## COCC1OC(OCc2ccc3ccccc3c2)C(NC(=O)CCCN)C(OCc2ccccc2)C1O (mixture of isomers) [Compound 120]
3P library
  % SST5 radio-ligand binding displaced at conc 0.5: + (% SST5 radio-ligand binding displaced at cone (μM) 60>+>40%)
  % SST5 radio-ligand binding displaced at conc 10: ++ (% SST5 radio-ligand binding displaced at conc (μM) >60%)

## COCC1OC(OCc2ccc3ccccc3c2)C(NC(=O)CCN)C(OCc2ccc(Cl)cc2)C1O (mixture of isomers) [Compound 66]
3P library
  % SST5 radio-ligand binding displaced at conc 0.001: − (% SST5 radio-ligand binding displaced at cone (μM) −<40%)
  % SST5 radio-ligand binding displaced at conc 0.10: − (% SST5 radio-ligand binding displaced at cone (μM) −<40%)
  % SST5 radio-ligand binding displaced at conc 0.5: ++ (% SST5 radio-ligand binding displaced at conc (μM) >60%)
  % SST5 radio-ligand binding displaced at conc 1.0: ++ (% SST5 radio-ligand binding displaced at conc (μM) >60%)
  % SST5 radio-ligand binding displaced at conc 10: ++ (% SST5 radio-ligand binding displaced at conc (μM) >60%)

## COC[C@H]1O[C@H](OCc2ccc3ccccc3c2)[C@H](NC(=O)CCCN)[C@@H](OCc2cc(Cl)ccc2Cl)[C@@H]1O [Compound 145]
3P library
  % SST5 radio-ligand binding displaced at conc 0.25: + (% SST5 radio-ligand binding displaced at cone (μM) 60>+>40%)
  % SST5 radio-ligand binding displaced at conc 1.0: ++ (% SST5 radio-ligand binding displaced at conc (μM) >60%)

## COC[C@H]1O[C@H](OCc2ccc3ccccc3c2)[C@H](NC(=O)CC(C)N)[C@@H](OCc2ccc3ccccc3c2)[C@@H]1O (stereo partly shown) [Compound 100]
3P library
  % SST5 radio-ligand binding displaced at conc 0.25: + (% SST5 radio-ligand binding displaced at cone (μM) 60>+>40%)
  % SST5 radio-ligand binding displaced at conc 1.0: ++ (% SST5 radio-ligand binding displaced at conc (μM) >60%)

## COC[C@H]1O[C@H](OCc2ccc3ccccc3c2)[C@H](NC(=O)C(C)CN)[C@@H](OCc2ccc3ccccc3c2)[C@@H]1O (stereo partly shown) [Compound 99]
3P library
  % SST5 radio-ligand binding displaced at conc 0.25: − (% SST5 radio-ligand binding displaced at cone (μM) −<40%)
  % SST5 radio-ligand binding displaced at conc 1.0: + (% SST5 radio-ligand binding displaced at cone (μM) 60>+>40%)

## COC1C(O)C(COCc2ccc(Cl)cc2)OC(OCc2ccc(Cl)cc2)C1NC(=O)CN (mixture of isomers) [Compound 177]
3P library
  % SST5 radio-ligand binding displaced at conc 0.25: − (% SST5 radio-ligand binding displaced at cone (μM) −<40%)
  % SST5 radio-ligand binding displaced at conc 1.0: − (% SST5 radio-ligand binding displaced at cone (μM) −<40%)

## COCC1OC(OCc2ccc(Cl)cc2)C(NC(=O)CN)C(OCc2ccc(-c3ccccc3)cc2)C1O (mixture of isomers) [Compound 162]
3P library
  % SST5 radio-ligand binding displaced at conc 0.001: − (% SST5 radio-ligand binding displaced at cone (μM) −<40%)
  % SST5 radio-ligand binding displaced at conc 0.10: − (% SST5 radio-ligand binding displaced at cone (μM) −<40%)
  % SST5 radio-ligand binding displaced at conc 0.25: − (% SST5 radio-ligand binding displaced at cone (μM) −<40%)
  % SST5 radio-ligand binding displaced at conc 0.5: − (% SST5 radio-ligand binding displaced at cone (μM) −<40%)
  % SST5 radio-ligand binding displaced at conc 1.0: − (% SST5 radio-ligand binding displaced at cone (μM) −<40%)
  % SST5 radio-ligand binding displaced at conc 10: + (% SST5 radio-ligand binding displaced at cone (μM) 60>+>40%)

## COC[C@H]1O[C@H](OCc2ccc3ccccc3c2)[C@H](NC(=O)CCCN)[C@@H](OCc2cccc3ccccc23)[C@@H]1O [Compound 151]
3P library
  % SST5 radio-ligand binding displaced at conc 0.25: + (% SST5 radio-ligand binding displaced at cone (μM) 60>+>40%)
  % SST5 radio-ligand binding displaced at conc 1.0: ++ (% SST5 radio-ligand binding displaced at conc (μM) >60%)
